The test system of test [1] is INS-1 832/13. The experiment in a line: Activation of AKT in STZ-induced rat INS-1 832/13 cells assessed as increase in Akt phosphorylation at 5 to 20 uM after 24 hrs by AlphaLISA assay. The conditions noted are these: filed as activator, dose 5-20 µM.
Test [2] concerns INS-1 832/13. The experiment in a line: Activation of PI3K/Akt signalling pathway in STZ-induced rat INS-1 832/13 cells assessed as decrease in caspase 9 protein expression at 5 to 20 uM after 24 hrs by Western blot analysis. As to conditions: filed as activator, dose 5-20 µM.
Test [3] relates to INS1(832/13). The experiment in a line: Cytoprotective activity against STZ-induced rat INS-1 832/13 cells assessed as increase in IRS2 protein expression at 5 to 20 uM after 24 hrs Western blot analysis. It is filed as functional, cell-based. As to conditions: dose 5-20 µM. A general note: Immunoblotting shows a protein as a band on a membrane.
Test [4] relates to INS1(832/13). The test can be described thus: Cytoprotective activity in rat INS-1 832/13 cells assessed as inhibition of STZ-induced apoptosis at 20 uM incubated for 24 hrs by MTT assay relative to control. The class given is functional. (Tetrazolium assays rely on reduction of a dye to a coloured formazan, in cell work by metabolically active cells.)
For test [5], the system named is INS1(832/13). The test can be described thus: Cytoprotective activity in rat INS-1 832/13 cells assessed as inhibition of STZ-induced apoptosis at 20 uM incubated for 24 hrs in presence of wortmannin by MTT assay. The class given is functional, cell-based.
For test [6], the system named is INS-1 832/13. The experiment in a line: Activation of AKT in STZ-induced rat INS-1 832/13 cells assessed as increase in Akt phosphorylation at 20 uM after 24 hrs in presence of wortmannin by Western blot analysis.
Test [7] relates to INS-1 832/13. The test can be described thus: Activation of PI3K/Akt signalling pathway in STZ-induced rat INS-1 832/13 cells assessed as decrease in p21 mRNA expression at 5 to 20 uM after 24 hrs by RT-PCR analysis. As to conditions: filed as activator, dose 5-20 µM.
Test [8] has as its system INS1(832/13). The test can be described thus: Cytoprotective activity against STZ-induced toxicity in rat INS-1 832/13 cells assessed as mass of apoptotic cells at 5 uM by Annexin V-FITC staining based flow cytometric analysis (reference value: 40.8%). The class given is functional. For orientation: In flow cytometry, cells or beads pass a laser one at a time.
Test [9] relates to INS-1 832/13. The test can be described thus: Activation of PI3K/Akt signalling pathway in STZ-induced rat INS-1 832/13 cells assessed as decrease in cleaved-caspase 3 protein expression at 5 to 20 uM after 24 hrs by Western blot analysis. As to conditions: filed as activator, dose 5-20 µM.
The test system of test [10] is INS1(832/13). The test can be described thus: Potency index, ratio of vincamine EC50 to test compound EC50 for cytoprotective activity in rat INS-1 832/13 cells assessed as inhibition of STZ-induced apoptosis. The class given is functional.
Test [11] deals with INS1(832/13). The test can be described thus: Cytoprotective activity against STZ-induced toxicity in rat INS-1 832/13 cells assessed as mass of apoptotic cells at 20 uM by Annexin V-FITC staining based flow cytometric analysis (reference value: 40.8%). The class given is functional.
The subject of test [12] is INS-1 832/13. The experiment in a line: Activation of PI3K/Akt signalling pathway in STZ-induced rat INS-1 832/13 cells assessed as decrease in caspase 3 protein expression at 5 to 20 uM after 24 hrs by Western blot analysis. The conditions noted are these: filed as activator, dose 5-20 µM.
The test system of test [13] is INS-1 832/13. The test can be described thus: Activation of AKT in STZ-induced rat INS-1 832/13 cells assessed as increase in Akt phosphorylation at 5 to 20 uM after 24 hrs by Western blot analysis. The conditions noted are these: filed as activator, dose 5-20 µM.
For test [14], the system named is INS1(832/13). The experiment in a line: Cytoprotective activity in rat INS-1 832/13 cells assessed as inhibition of STZ-induced apoptosis incubated for 24 hrs by MTT assay. The class given is functional, cell-based. As to conditions: INS-1 832/13, 24 h.
Test [15] concerns INS1(832/13). The test can be described thus: Cytoprotective activity against STZ-induced toxicity in rat INS-1 832/13 cells assessed as mass of apoptotic cells at 10 uM by Annexin V-FITC staining based flow cytometric analysis (reference value: 40.8%). It is filed as functional.
Test [16] concerns INS-1 832/13. The test can be described thus: Activation of PI3K/Akt signalling pathway in STZ-induced rat INS-1 832/13 cells assessed as increase in phosphorylation of FOX01 at Ser256 residue at 5 to 20 uM after 24 hrs by Western blot analysis. As to conditions: filed as activator, dose 5-20 µM.
In test [17] the test system is INS-1 832/13. The test can be described thus: Activation of PI3K/Akt signalling pathway in STZ-induced rat INS-1 832/13 cells assessed as increase in phosphorylation of GSK3beta at Ser9 residue at 5 to 20 uM after 24 hrs by Western blot analysis. The conditions noted are these: filed as activator, dose 5-20 µM.
In test [18] the test system is INS-1 832/13. The experiment in a line: Activation of PI3K/Akt signalling pathway in STZ-induced rat INS-1 832/13 cells assessed as decrease in Bim mRNA expression at 5 to 20 uM after 24 hrs by RT-PCR analysis. As to conditions: filed as activator, dose 5-20 µM.
The subject of test [19] is INS1(832/13). The test can be described thus: Cytoprotective activity against STZ-induced toxicity in rat INS-1 832/13 cells at 10 uM incubated for 24 hrs by MTT assay. The class given is functional, cell-based.
Test [20] concerns INS1(832/13). The test can be described thus: Cytoprotective activity against STZ-induced rat INS-1 832/13 cells assessed as increase in IRS2 mRNA expression at 5 to 20 uM after 24 hrs RT-PCR analysis. The conditions noted are these: dose 5-20 µM. The class given is functional, cell-based.
Test [21] concerns INS-1 832/13. The experiment in a line: Activation of AKT in STZ-induced rat INS-1 832/13 cells assessed as increase in Akt phosphorylation at 20 uM after 24 hrs by AlphaLISA assay. As to conditions: filed as activator.
Test [22] relates to INS-1 832/13. The test can be described thus: Activation of AKT in STZ-induced rat INS-1 832/13 cells assessed as increase in Akt phosphorylation at 20 uM after 24 hrs by Western blot analysis. The conditions noted are these: filed as activator.
The subject of test [23] is INS1(832/13). The test can be described thus: Cytoprotective activity against STZ-induced toxicity in rat INS-1 832/13 cells at 20 uM incubated for 24 hrs by MTT assay. The class given is functional, cell-based.

Molecules are shown by their SMILES. Calls of active or inactive are those of the source. Unless noted, the rule behind the calls is not given here.

What is called EC50 is the concentration giving half of the maximal effect. In the case of `CCNCC1=C[C@]2(CC)CCCN3CCc4c(n1c1ccccc41)[C@@H]32`, the outcome in the test on INS-1 832/13 [1], with INS-1 832/13 [2], with INS1(832/13) [3], in the test with INS1(832/13) [4], in the test with INS-1 832/13 [7] and with INS-1 832/13 [9] was Active. In addition, the outcome with INS-1 832/13 [12], in the test on INS-1 832/13 [13], in the test with INS-1 832/13 [16], with INS-1 832/13 [17], in the test with INS-1 832/13 [18] and with INS1(832/13) [19] was Active. The outcome in the test on INS1(832/13) [20] was Active. The outcome in the test on INS1(832/13) [5] and in the test on INS-1 832/13 [6] was inactive. In addition, the Activity in the test on INS1(832/13) [8] was 31.3%; in the test on INS1(832/13) [11], 24.1%; in the test on INS1(832/13) [15] it was 29.1%. In the test with INS1(832/13) [10], the “Ratio EC50” value came to 2. For the same compound, the EC50 with INS1(832/13) [14] is 0.27 µM.
Consider `CC[C@]12CCCN3CCc4c(n(c5ccccc45)[C@@](O)(C(=O)OC)C1)[C@@H]32` [VINCAMINE], for which the result in the test on INS-1 832/13 [21], in the test on INS-1 832/13 [22] and in the test with INS1(832/13) [23] was Active. The figures for the Activity with INS1(832/13) [4] and in the test with INS1(832/13) [11] were 63% and 28.7%, respectively. Besides, the outcome in the test with INS1(832/13) [5] and with INS-1 832/13 [6] was inactive. For the same compound, in the test with INS1(832/13) [14], the EC50 was determined as 11 µM.
Regarding `CC[C@@]12C=C(CO)n3c4c(c5ccccc53)CCN(CCC1)[C@H]42`, the outcome in the test with INS-1 832/13 [1], in the test on INS-1 832/13 [2], in the test on INS1(832/13) [3], with INS-1 832/13 [7], with INS-1 832/13 [9] and with INS-1 832/13 [12] was Active. Moreover, the outcome in the test with INS-1 832/13 [13], in the test on INS-1 832/13 [16], in the test on INS-1 832/13 [17], with INS-1 832/13 [18], in the test on INS1(832/13) [19] and with INS1(832/13) [20] was Active. For the same compound, the result in the test on INS1(832/13) [5] and in the test with INS-1 832/13 [6] was inactive. In addition, the Activity in the test on INS1(832/13) [8] worked out at 32%; in the test on INS1(832/13) [11], 19.1%; in the test with INS1(832/13) [15], 26.1%. In addition, the “Ratio EC50” value in the test on INS1(832/13) [10] was found to be 2. In addition, the EC50 in the test with INS1(832/13) [14] stood at 0.22 µM.
